From patent US8440646B1 (priority 2006, dated 2013)
Converted amounts (≈) assume the structure as drawn. Like-named read-outs stand apart in the source and are kept apart here.

Experiments:
[1] = system: protein synthesis; conditions: cited from earlier work
[2] = system: S. pneumoniae 700905; test: microbe, parasite or virus in culture; assay type: cell-based; conditions: Streptococcus pneumoniae
[3] = system: B. anthracis Sterne; test: microbe, parasite or virus in culture; assay type: cell-based; conditions: Bacillus anthracis
[4] = system: E. faecium 494; test: microbe, parasite or virus in culture; assay type: cell-based; conditions: Enterococcus faecium
[5] = system: B. anthracis Ame; test: microbe, parasite or virus in culture; assay type: cell-based; conditions: Bacillus anthracis
[6] = system: B. anthracis V770; test: microbe, parasite or virus in culture; assay type: cell-based; conditions: Bacillus anthracis
[7] = system: S. aureus MRSA5; test: microbe, parasite or virus in culture; assay type: cell-based; conditions: Staphylococcus aureus
[8] = system: COS-1; conditions: African green monkey
[9] = system: B. anthracis Vollum1B; test: microbe, parasite or virus in culture; assay type: cell-based; conditions: Bacillus anthracis
[10] = system: CHO-K1; conditions: Chinese hamster
[11] = system: E. faecalis 29212; test: microbe, parasite or virus in culture; assay type: cell-based; conditions: Enterococcus faecalis
[12] = system: S. pneumoniae 157E; test: animal or person; assay type: in vivo, mice; conditions: Streptococcus pneumoniae, 157E, in Mus musculus, 48 h, read-out: % survival; for responders at 5 mg/kg: sc
[13] = system: S. pneumoniae 700905; set-up: species or system mice; conditions: mouse, in vivo
[14] = system: S. pneumoniae PBS1339; set-up: species or system mice; conditions: mouse, in vivo, po
[15] = system: S. pneumoniae 157E; set-up: species or system mice; conditions: mouse, in vivo
[16] = system: 16S rRNA; conditions: cited from earlier work
[17] = system: Peptidoglycan synthesis of S. aureus RN450; test: microbe, parasite or virus in culture; assay type: cell-based; conditions: Staphylococcus aureus
[18] = system: S. aureus RN450; test: microbe, parasite or virus in culture; assay type: cell-based; conditions: Staphylococcus aureus
[19] = system: Protein synthesis of S. aureus RN450; test: microbe, parasite or virus in culture; assay type: cell-based; conditions: Staphylococcus aureus
[20] = system: B. cereus 95/3032; test: microbe, parasite or virus in culture; assay type: cell-based; conditions: Bacillus cereus
[21] = system: B. cereus 98/2658; test: microbe, parasite or virus in culture; assay type: cell-based; conditions: Bacillus cereus
[22] = system: B. cereus 97/4144; test: microbe, parasite or virus in culture; assay type: cell-based; conditions: Bacillus cereus
[23] = system: B. cereus 98/2620; test: microbe, parasite or virus in culture; assay type: cell-based; conditions: Bacillus cereus

Row | Structure (SMILES) | MIC [2] [µg/mL] | MIC [3] [µg/mL] | MIC [4] [µg/mL] | MIC [5] [µg/mL] | MIC [6] [µg/mL] | MIC [7] [µg/mL] | Tox50 [8] [µg/mL] | MIC [9] [µg/mL] | Tox50 [10] [µg/mL] | MIC [11] [µg/mL] | responders at 5 mg/kg [12] [%] | other results
1 | Cc1c2c(c(O)c3c(O)ccc(Cl)c13)C(=O)C1(O)C(=O)C(C(N)=O)=C(O)C(N(C)C)C1C2 (stereo not drawn) [4-epi-anhydrochlorotet] | – | – | – | – | – | – | – | – | – | – | – | inhibition of protein synthesis in words [1]: weak effects
2 | CC(C)c1cc(CN2CC=CCC2)c(O)c2c1C[C@H]1C[C@H]3[C@H](N(C)C)C(O)=C(C(N)=O)C(=O)[C@@]3(O)C(O)=C1C2=O [AF] | 0.06 (≈ 0.109 µM) | < 0.03 | 0.25 (≈ 0.453 µM) | < 0.03 | 0.06 (≈ 0.109 µM) | 0.13 (≈ 0.236 µM) | >100 | < 0.03 | >100 | 0.13 (≈ 0.236 µM) | – | –
3 | CN(C)c1cc(CN2Cc3ccccc3C2)c(O)c2c1C[C@H]1C[C@H]3[C@H](N(C)C)C(O)=C(C(N)=O)C(=O)[C@@]3(O)C(O)=C1C2=O [AI] | 0.06 (≈ 0.102 µM) | < 0.03 | 0.5 (≈ 0.849 µM) | 0.06 (≈ 0.102 µM) | 0.12 (≈ 0.204 µM) | 0.5 (≈ 0.849 µM) | >100 | < 0.03 | >100 | 0.5 (≈ 0.849 µM) | 40 | responders at 10 mg/kg ([12]; po): 0%
4 | CN(C)c1cc(CN2CCC3CCCCC3C2)c(O)c2c1C[C@H]1C[C@H]3[C@H](N(C)C)C(O)=C(C(N)=O)C(=O)[C@@]3(O)C(O)=C1C2=O (stereo partly drawn) [AJ] | 0.06 (≈ 0.0986 µM) | < 0.03 | 0.5 (≈ 0.821 µM) | < 0.03 | < 0.03 | 0.5 (≈ 0.821 µM) | >100 | < 0.03 | >100 | 0.5 (≈ 0.821 µM) | 100 | responders at 50 mg/kg ([12]; po): 80%
5 | COc1ccc(-c2cc(CNC(C)CF)c(O)c3c2C[C@H]2C[C@H]4[C@H](N(C)C)C(O)=C(C(N)=O)C(=O)[C@@]4(O)C(O)=C2C3=O)cn1 (stereo partly drawn) [AM] | 0.06 (≈ 0.0983 µM) | 0.06 (≈ 0.0983 µM) | 0.25 (≈ 0.409 µM) | 0.06 (≈ 0.0983 µM) | 0.12 (≈ 0.197 µM) | 0.25 (≈ 0.409 µM) | >100 | 0.06 (≈ 0.0983 µM) | 92.85 | 0.13 (≈ 0.213 µM) | 100 | responders at 50 mg/kg ([12]; po): 0%
6 | CC1(C)S[C@@H]2[C@H](NC(=O)[C@H](N)c3ccccc3)C(=O)N2[C@H]1C(=O)O [Ampicillin, reference compound] | – | – | – | – | – | – | – | – | – | – | – | PD50 ([13]; iv): 43.7 mg/kg; PD50 ([13]; po): >50 mg/kg; PD50 [14]: 3.2 mg/kg; PD50 ([15]; iv): 0.6 mg/kg; PD50 ([15]; po): 1.1 mg/kg
7 | Cc1c2c(c(O)c3c(O)cccc13)C(=O)[C@]1(O)C(=O)C(C(N)=O)=C(O)[C@@H](N(C)C)[C@@H]1C2 [Anhydro-tetracycline, anhydrotetracycline, reference compound] | – | – | – | – | – | – | – | – | – | – | – | effect on reactivity of nucleotides within the 16S rRNA (chemical footprint) [16]: A similar effect was not seen; IC50 ([17]; read-out: Peptidoglycan synthesis IC50): 19.2 µg/mL (≈ 45 µM); IC90 ([17]; read-out: Peptidoglycan synthesis IC90): > 32 µg/mL; inhibition of protein synthesis in words [1]: weak effects; MIC [18]: 2 µg/mL (≈ 4.69 µM); IC50 ([19]; read-out: Protein synthesis IC50): < 0.03 µg/mL; IC90 ([19]; read-out: Protein synthesis IC90): < 0.03 µg/mL
8 | CO/N=C(\C(=O)N[C@@H]1C(=O)N2C(C(=O)O)=C(COC(C)=O)CS[C@H]12)c1csc(N)n1 [Cefotaxime] | – | – | – | – | – | – | – | – | – | – | – | MIC [20]: > 64 µg/mL; MIC [21]: > 64 µg/mL; MIC [22]: 32 µg/mL (≈ 70.3 µM); MIC [23]: 64 µg/mL (≈ 141 µM)
